Measurements reported in ChEMBL document CHEMBL1201862, “PubChem BioAssay data set” (2004).
Active and inactive are the calls of the source.

What was measured:
Cytochrome P450 3A4 [1] = target: T1, Cytochrome P450 3A4 (Homo sapiens, UniProt P08684);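 further: CYP3A4 tested as one member of a cytochrome P450 panel screen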
Cytochrome P450 2C9 [2] = target: T2, Cytochrome P450 2C9 (Homo sapiens, UniProt P11712)
Coagulation factor XII = target: T3, Coagulation factor XII (Homo sapiens, UniProt P00748); type: functional;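 further: activated factor XIIa alpha cleaving a fluorogenic AMC peptide substrate; inhibitor potency from loss of enzyme activity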
T3 sequence (P00748 whole entry): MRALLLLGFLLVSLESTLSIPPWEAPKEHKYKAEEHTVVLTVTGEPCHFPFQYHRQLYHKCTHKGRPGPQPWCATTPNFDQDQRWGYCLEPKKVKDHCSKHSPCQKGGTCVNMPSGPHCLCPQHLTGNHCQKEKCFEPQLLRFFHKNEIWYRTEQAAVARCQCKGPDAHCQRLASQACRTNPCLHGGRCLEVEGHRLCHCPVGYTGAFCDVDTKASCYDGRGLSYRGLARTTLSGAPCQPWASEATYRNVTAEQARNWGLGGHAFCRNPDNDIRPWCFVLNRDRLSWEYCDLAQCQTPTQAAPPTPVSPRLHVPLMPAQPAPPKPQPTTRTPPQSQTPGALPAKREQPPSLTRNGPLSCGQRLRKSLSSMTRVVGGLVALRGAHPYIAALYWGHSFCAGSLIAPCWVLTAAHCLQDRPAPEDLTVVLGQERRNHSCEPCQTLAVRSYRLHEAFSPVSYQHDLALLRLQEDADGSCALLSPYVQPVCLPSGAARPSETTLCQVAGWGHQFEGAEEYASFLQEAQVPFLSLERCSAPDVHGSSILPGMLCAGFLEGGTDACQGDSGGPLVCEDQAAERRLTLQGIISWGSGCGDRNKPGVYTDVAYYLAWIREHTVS

[3] = C. albicans growth with fluconazole, confirmation, fluorescence, retest (AID 2467); type: functional, cell-based
[4] = NIH-3T3 fibroblast cytotoxicity, dose response, cytotoxicity control, cell-based, fluorescence, Alamar Blue, secondary assay (AID 2327); type: functional;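 further: NIH-3T3 mouse fibroblasts cultured with fluconazole at 8 µg/mL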
[5] = target: Dual specificity tyrosine-phosphorylation-regulated kinase 1A (Rattus norvegicus, UniProt Q63470); type: biochemical, Homo sapiens
Cytochrome P450 3A4 [6] = target: T1, Cytochrome P450 3A4; remark: listed apart in the source
Cytochrome P450 1A2 = target: T4, Cytochrome P450 1A2 (Homo sapiens, UniProt P05177);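 further: PubChem cytochrome P450 panel assay, CYP1A2 panel member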
T4 sequence (P05177 whole entry): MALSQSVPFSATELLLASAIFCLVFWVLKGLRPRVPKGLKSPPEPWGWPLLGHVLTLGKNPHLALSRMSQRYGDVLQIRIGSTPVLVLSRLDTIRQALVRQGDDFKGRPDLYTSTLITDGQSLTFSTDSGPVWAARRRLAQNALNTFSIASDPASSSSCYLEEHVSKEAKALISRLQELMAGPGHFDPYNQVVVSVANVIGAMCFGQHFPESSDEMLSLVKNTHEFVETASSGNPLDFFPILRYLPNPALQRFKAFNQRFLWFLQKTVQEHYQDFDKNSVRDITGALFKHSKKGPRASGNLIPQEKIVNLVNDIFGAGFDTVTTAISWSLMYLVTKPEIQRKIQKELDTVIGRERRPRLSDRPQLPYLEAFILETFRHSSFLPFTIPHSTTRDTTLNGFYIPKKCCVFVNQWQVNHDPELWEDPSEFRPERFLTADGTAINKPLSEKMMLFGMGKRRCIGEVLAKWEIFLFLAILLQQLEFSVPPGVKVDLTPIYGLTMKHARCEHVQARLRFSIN

HEK293 [7] = test: NOD1 signaling inhibitors, primary screen, cell-based, luminescence, uHTS (AID 1578); type: functional; conditions: Homo sapiens
HEK293 [8] = test: NOD2 signaling inhibitors in MDP-stimulated cells, cell-based, uHTS, luminescence (AID 2001); type: functional; conditions: Homo sapiens
HEK293 [9] = test: cells; type: functional, cell-based; conditions: Homo sapiens
HEK293 [10] = test: cells; type: functional, cell-based; conditions: Homo sapiens; remark: listed apart in the source
[11] = target: Nucleotide-binding oligomerization domain-containing protein 2 (Homo sapiens, UniProt Q9HC29); test: NOD2 signaling inhibitors, cell-based, luminescence, uHTS, HEK293 (AID 1566); type: functional
HEK293 [12] = test: cells; type: functional, cell-based; conditions: Homo sapiens; remark: listed apart in the source
[13] = target: Heat shock protein HSP 90-alpha (Homo sapiens, UniProt P07900); type: functional, organism-based
[14] = Luminescence Cell-Based Dose Retest to Confirm Inhibitors of Cancer Stem Cells. [Related pubchem assays (depositor defined):AID2717, AID2721]; type: functional; conditions: Homo sapiens
[15] = target: T5, Calpain-2 catalytic subunit (Sus scrofa, UniProt P43367); test: pig calpain II inhibitor potency, dose response, biochemical, fluorogenic peptide substrate (AID 1420); type: functional
T5 sequence (P43367 whole entry): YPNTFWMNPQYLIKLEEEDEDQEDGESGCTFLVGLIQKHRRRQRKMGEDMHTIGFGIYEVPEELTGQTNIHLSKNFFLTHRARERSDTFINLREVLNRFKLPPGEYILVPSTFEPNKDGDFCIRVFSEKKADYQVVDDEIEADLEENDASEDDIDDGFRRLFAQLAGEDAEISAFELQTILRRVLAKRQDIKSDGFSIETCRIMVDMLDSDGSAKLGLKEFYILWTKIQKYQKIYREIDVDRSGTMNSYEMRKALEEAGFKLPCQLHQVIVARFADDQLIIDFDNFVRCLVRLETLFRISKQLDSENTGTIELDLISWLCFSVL

Cytochrome P450 2C9 [16] = target: T2, Cytochrome P450 2C9; remark: listed apart in the source
[17] = A Cell Based Secondary Assay To Explore Cytotoxicity of Compounds that Sensitize Mycobacterium Tuberculosis to Beta-Lactam Antibiotics.; type: functional
Protein RecA = target: T6, Protein RecA (Mycobacterium tuberculosis, UniProt P9WHJ3); test: Fluorescence Cell-Free Homogeneous Dose Retest to Identify Inhibitors of RecA-Intein Splicing Activity. [Related pubchem assays (depositor defined):AID2097, AID2223, AID489010, AID492950]; type: functional
T6 sequence (P9WHJ3 whole entry): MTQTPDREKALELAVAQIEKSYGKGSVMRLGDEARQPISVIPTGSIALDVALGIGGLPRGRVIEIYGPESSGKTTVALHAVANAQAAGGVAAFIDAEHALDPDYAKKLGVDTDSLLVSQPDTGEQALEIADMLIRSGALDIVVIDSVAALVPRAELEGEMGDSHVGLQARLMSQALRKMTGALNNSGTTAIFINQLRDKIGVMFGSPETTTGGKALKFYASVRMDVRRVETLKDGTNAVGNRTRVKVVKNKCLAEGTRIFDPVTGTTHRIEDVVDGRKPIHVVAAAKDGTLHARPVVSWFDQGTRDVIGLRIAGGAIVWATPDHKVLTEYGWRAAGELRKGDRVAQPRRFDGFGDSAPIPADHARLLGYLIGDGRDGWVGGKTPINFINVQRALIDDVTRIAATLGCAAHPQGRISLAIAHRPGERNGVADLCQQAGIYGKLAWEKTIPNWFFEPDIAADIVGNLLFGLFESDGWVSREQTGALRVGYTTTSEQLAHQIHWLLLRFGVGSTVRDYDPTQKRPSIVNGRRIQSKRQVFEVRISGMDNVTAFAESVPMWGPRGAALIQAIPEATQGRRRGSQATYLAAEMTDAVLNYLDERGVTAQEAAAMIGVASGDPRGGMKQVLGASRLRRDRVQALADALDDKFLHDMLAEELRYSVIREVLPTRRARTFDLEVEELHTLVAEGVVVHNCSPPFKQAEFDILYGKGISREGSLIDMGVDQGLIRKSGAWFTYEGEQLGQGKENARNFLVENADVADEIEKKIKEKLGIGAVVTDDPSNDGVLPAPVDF

[18] = target: T7, Replicative DNA helicase DnaB (Mycobacterium tuberculosis, UniProt P9WMR3); test: DnaB intein splicing inhibitors, dose response, biochemical, cell-free fluorescence (AID 449749); type: functional
T7 sequence (P9WMR3 whole entry): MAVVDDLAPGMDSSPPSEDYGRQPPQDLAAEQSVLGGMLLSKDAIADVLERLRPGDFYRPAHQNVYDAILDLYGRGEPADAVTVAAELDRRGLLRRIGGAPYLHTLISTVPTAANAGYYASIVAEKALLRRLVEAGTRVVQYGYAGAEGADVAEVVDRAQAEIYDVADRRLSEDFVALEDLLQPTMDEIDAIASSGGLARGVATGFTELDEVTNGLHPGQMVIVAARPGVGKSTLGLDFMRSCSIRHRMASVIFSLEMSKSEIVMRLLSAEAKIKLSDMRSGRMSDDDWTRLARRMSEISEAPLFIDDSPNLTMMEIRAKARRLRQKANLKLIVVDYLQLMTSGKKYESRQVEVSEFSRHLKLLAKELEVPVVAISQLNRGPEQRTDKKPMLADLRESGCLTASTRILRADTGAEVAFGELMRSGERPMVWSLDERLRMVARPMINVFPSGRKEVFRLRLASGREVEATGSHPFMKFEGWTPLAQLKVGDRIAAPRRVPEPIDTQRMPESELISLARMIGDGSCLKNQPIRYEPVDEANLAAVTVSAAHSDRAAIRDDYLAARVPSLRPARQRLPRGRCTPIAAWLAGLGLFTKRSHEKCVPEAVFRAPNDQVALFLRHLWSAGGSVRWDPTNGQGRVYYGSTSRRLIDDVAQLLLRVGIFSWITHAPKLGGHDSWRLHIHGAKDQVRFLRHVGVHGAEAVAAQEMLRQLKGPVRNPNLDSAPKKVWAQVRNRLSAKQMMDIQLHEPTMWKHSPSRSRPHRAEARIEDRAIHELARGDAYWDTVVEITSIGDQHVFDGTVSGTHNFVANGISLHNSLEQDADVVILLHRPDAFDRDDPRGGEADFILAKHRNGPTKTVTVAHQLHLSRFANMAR

[19] = target: T8, Voltage-gated N-type calcium channel alpha-1B subunit/Amyloid beta A4 precursor protein-binding family A member 1 (Homo sapiens, UniProt Q00975+Q02410); type: protein assay
T8 sequence (Q00975 whole entry): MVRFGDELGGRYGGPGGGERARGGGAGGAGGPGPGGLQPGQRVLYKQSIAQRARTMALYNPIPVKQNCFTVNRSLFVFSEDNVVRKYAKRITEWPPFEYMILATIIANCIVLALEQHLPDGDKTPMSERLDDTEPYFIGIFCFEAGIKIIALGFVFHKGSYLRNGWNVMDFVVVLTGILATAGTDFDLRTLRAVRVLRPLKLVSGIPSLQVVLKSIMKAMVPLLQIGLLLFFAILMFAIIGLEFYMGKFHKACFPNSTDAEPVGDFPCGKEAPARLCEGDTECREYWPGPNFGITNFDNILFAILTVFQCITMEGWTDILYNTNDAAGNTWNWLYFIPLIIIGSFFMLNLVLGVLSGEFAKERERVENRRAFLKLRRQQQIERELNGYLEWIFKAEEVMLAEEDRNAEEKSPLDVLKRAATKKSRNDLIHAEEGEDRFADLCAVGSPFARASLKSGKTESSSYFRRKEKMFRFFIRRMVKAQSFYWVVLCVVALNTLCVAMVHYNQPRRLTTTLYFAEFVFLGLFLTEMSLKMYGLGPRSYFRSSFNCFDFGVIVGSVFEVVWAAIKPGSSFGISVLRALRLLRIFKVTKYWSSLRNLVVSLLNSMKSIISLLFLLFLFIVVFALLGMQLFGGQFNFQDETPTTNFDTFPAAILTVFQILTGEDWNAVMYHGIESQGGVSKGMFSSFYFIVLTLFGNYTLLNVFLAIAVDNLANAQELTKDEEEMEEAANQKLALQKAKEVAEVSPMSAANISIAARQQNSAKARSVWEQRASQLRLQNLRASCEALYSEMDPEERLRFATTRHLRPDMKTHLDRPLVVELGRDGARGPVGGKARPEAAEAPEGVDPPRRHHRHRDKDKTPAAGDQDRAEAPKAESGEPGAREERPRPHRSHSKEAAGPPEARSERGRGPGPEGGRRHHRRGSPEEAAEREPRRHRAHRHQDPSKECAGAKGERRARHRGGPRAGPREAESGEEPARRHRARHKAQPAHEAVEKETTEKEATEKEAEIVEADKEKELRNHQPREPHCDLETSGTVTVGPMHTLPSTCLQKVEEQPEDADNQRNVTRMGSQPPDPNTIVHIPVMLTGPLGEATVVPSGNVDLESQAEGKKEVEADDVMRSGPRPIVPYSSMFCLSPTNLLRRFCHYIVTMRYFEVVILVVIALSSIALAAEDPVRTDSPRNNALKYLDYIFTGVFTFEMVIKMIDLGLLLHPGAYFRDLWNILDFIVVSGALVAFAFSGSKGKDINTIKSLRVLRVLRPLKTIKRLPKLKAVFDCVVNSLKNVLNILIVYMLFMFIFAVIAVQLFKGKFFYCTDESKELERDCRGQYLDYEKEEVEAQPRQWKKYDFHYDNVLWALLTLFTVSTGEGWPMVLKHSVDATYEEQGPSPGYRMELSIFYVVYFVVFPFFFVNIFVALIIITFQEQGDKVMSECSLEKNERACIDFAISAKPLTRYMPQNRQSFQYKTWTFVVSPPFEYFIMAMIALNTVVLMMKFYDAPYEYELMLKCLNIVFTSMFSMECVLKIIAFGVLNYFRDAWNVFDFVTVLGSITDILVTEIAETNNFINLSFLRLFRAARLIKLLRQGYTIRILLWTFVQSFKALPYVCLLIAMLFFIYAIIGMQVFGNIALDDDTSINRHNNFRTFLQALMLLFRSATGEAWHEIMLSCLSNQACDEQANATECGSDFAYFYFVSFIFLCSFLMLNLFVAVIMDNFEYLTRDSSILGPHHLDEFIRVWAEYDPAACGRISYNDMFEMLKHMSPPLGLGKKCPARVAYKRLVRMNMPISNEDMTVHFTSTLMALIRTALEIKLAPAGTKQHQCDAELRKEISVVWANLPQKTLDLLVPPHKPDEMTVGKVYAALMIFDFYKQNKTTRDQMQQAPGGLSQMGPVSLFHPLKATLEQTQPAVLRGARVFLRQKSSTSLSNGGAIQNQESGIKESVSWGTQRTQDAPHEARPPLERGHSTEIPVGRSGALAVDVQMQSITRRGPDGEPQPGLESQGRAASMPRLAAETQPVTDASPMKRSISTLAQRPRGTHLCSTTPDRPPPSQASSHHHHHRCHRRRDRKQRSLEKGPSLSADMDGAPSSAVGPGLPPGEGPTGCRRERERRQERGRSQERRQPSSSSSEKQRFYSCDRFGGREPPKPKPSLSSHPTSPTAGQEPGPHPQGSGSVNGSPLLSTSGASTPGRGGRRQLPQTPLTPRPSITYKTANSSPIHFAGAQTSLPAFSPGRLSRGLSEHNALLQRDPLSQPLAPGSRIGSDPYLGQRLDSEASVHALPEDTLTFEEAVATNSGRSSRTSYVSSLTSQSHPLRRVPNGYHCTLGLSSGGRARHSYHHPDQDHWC
T8 sequence (Q02410 whole entry): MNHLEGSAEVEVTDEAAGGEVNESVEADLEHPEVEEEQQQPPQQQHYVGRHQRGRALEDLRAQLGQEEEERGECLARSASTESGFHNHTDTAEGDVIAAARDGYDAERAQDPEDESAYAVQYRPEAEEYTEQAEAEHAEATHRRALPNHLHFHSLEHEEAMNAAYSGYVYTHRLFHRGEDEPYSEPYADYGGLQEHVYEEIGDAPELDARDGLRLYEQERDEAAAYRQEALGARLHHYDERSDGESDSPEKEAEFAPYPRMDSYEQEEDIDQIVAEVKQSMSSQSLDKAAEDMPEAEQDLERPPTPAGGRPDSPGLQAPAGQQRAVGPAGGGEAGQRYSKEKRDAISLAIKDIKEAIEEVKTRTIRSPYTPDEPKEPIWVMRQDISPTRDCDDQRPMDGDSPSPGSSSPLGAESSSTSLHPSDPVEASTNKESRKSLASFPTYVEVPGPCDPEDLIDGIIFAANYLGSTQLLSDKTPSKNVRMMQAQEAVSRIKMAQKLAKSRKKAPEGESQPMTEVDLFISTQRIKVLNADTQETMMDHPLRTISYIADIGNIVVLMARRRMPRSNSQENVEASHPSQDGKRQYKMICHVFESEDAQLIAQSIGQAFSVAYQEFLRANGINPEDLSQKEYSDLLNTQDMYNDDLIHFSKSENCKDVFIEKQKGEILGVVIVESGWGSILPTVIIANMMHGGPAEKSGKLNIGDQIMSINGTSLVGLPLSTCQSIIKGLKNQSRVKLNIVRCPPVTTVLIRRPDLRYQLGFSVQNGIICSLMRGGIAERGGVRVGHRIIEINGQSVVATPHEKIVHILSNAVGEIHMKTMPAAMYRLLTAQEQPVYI

[20] = target: T8, Voltage-gated N-type calcium channel alpha-1B subunit/Amyloid beta A4 precursor protein-binding family A member 1; type: protein assay; remark: listed apart in the source
[21] = target: T8, Voltage-gated N-type calcium channel alpha-1B subunit/Amyloid beta A4 precursor protein-binding family A member 1; test: disruptors of Mint-PDZ/N-type channel peptide interaction – biochemical, HTRF, SAR follow-up (AID 2489); type: functional
HEK293 [22] = test: cells; conditions: Homo sapiens
Tumor necrosis factor = Tumor necrosis factor (Homo sapiens, UniProt P01375); test: TNFa-triggered NF-kB activation inhibitors, SAR follow-up, cell-based, revised (AID 2337); type: functional
Sequence of Tumor necrosis factor (P01375 whole entry): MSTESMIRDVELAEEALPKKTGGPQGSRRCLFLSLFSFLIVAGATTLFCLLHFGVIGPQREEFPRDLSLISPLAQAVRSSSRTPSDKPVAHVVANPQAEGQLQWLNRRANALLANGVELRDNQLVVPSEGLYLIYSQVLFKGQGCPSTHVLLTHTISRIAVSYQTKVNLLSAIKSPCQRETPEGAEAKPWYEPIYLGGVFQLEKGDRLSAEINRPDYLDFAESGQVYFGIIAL

T1 sequence (P08684 whole entry): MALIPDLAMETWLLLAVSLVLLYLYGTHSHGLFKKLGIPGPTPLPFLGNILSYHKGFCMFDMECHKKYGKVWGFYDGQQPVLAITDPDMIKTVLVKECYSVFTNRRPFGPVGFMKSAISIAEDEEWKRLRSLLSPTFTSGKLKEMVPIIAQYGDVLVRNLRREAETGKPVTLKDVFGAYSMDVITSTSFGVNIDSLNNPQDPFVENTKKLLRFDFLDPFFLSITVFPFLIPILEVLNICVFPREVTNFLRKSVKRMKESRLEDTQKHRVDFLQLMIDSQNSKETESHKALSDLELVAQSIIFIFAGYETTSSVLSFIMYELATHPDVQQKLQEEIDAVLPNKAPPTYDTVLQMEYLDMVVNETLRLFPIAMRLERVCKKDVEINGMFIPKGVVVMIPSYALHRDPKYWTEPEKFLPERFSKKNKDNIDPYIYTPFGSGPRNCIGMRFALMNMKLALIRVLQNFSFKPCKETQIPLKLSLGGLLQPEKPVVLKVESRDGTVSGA
T2 sequence (P11712 whole entry): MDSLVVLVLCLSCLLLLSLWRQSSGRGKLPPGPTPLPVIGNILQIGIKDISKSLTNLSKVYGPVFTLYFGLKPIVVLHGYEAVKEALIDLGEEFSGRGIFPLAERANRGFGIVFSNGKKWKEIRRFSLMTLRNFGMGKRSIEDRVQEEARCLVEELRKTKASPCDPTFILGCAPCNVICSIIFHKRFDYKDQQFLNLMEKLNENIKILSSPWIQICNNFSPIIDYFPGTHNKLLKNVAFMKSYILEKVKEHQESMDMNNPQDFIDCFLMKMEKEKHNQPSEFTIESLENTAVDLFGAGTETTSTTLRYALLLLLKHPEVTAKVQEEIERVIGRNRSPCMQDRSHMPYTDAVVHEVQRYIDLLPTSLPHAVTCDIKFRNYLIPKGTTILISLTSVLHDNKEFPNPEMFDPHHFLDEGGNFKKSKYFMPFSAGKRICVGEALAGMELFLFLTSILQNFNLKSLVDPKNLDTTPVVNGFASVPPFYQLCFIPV

Which AC50 (Cytochrome P450 3A4 [1]) does the source give for `Cc1cc(C(C#N)c2cccc(Cl)c2)n2ncnc2n1` (stereo not given) here?
The AC50 was 14.1 µM (inconclusive).

And the AC50 (Cytochrome P450 2C9 [2])?
The AC50 was “inconclusive”.

What about the IC50 (Coagulation factor XII) of the same compound?
The IC50 was > 50 µM (inactive).

What about the EC50 [3] of the same compound?
Its EC50 is 0.598 µM (active).

What about the EC50 [4] of the same compound?
Its EC50 is > 160 µM (inactive).

Which AC50 [5] does the source give for `COc1ccc(/C=C/C(=O)Nc2cccc(C(C)=O)c2)cc1` here?
The AC50 was 3.68 µM (active).

Which AC50 (Cytochrome P450 3A4 [6]) does the source give for `COc1ccc(-c2nc3cnc(N4CCN(C)CC4)nc3n(Cc3ccc(F)cc3)c2=O)cc1` here?
The AC50 was “inconclusive”.

What about the AC50 (Cytochrome P450 1A2) of the same compound?
The AC50 was 10 µM (inconclusive).

With `Cc1cccc(NC(=O)C2(c3ccccc3)CC2(Cl)Cl)c1` (stereo not given) as the compound, how does the AC50 (Cytochrome P450 3A4 [6]) read?
The AC50 was “inconclusive”.

Which EC50 (HEK293 [7]) does the source give for `Cc1nc(N2CCC(C)CC2)c2c(C)c(C(=O)Nc3cc(F)ccc3C)sc2n1` here?
Its EC50 is > 20 µM (inactive).

What about the IC50 (HEK293 [8]) of the same compound?
The IC50 was > 20 µM (inactive).

What about the IC50 (HEK293 [9]) of the same compound?
The IC50 was > 20 µM (inactive).

What about the IC50 (HEK293 [10]) of the same compound?
Its IC50 is > 20 µM (inactive).

What about the EC50 [11] of the same compound?
The EC50 was > 20 µM (inactive).

And the IC50 (HEK293 [12])?
Its IC50 is > 20 µM (inactive).

Which AC50 [13] does the source give for `Cc1c(C(=O)N(Cc2ccccc2)Cc2cccs2)cnn1-c1ccc(Cl)cc1` here?
The AC50 was 3.44 µM (active).

What about the AC50 [14] of the same compound?
The AC50 was 1.77 µM (active).

What about the IC50 (Coagulation factor XII) of the same compound?
The IC50 was > 50 µM (inactive).

What about the IC50 [15] of the same compound?
The IC50 was 4.66 µM (not active).

For `COc1ccc2c(c1)CN([C@H](C)[C@@H]1CC[C@@H]3[C@H]4CC[C@H]5C[C@@H](O)CC[C@@]5(C)[C@H]4CC[C@]31C)CO2`, which AC50 (Cytochrome P450 3A4 [6]) is on record?
The AC50 was “inconclusive”.

And the AC50 (Cytochrome P450 2C9 [16])?
Its AC50 is 7.94 µM (inconclusive).

Which results are given for `O=C1COc2ccc(C(=O)CCl)cc2N1`?
CC50 [17]: 31.8 µM (active); EC50 (Protein RecA): 26.3 µM (active); AC50 [18]: 40.4 µM (active)

Which IC50 (Coagulation factor XII) does the source give for `CCc1c(C)nc(N)nc1N1N=C1SCC#N` here?
Its IC50 is > 50 µM (inactive).

For `O=C(CSc1ccc(Cl)cc1)Nc1cccc(-c2nc3ccccc3[nH]2)c1`, which IC50 [19] is on record?
The IC50 was 36.7 µM (active).

And the IC50 [20]?
The IC50 was 2.75 µM (active).

And the IC50 [21]?
Its IC50 is 26.9 µM (active).

With `CN(C)c1ccc(NC(=O)c2ccc(CN3CCc4ccccc43)cc2)cc1` as the compound, how does the IC50 (HEK293 [22]) read?
Its IC50 is > 20 µM (inactive).

And the IC50 (Tumor necrosis factor)?
The IC50 was 5.37 µM (active).
